Experimental data taken from patent US20240092727A1, “CRYSTALLINE 4-((L-VALYL)OXY)BUTANOIC ACID” (XWPHARMA LTD., priority 2022, published 2024).

Key:
[1] = Sealed storage stability study (ICH Q1A (R2)), four storage conditions, 3- and 6-month timepoints; assay type: physicochemical; parameters: key to Crystalline Form: C = Conforms; N/A = Not Applicable; conditions: for Crystalline Form: XRPD; for Crystalline Form / Assay / Total Impurities / Water Content: sealed storage
Excerpt: (§1) “Sealed storage stability” refers to the stability of a compound that is enclosed within two sealed polyethylene bags with a desiccant material placed between the two polyethylene bags and the two sealed polyethylene bags are enclosed within a sealed one-layer aluminum bag.
Crystalline 4-((L-valyl)oxy)butanoic acid was packaged in double low-density polyethylene (LDPE) zipper bags and sealed. The packaged samples were then placed within an aluminum foil outer bag (polyethylene, polyethylene terephthalate three-layer composite) and sealed. The fully packaged samples were placed in stability chambers for the duration of the sealed storage stability study.
Sealed storage stability studies were carried out under four sets of conditions external to the packaged crystalline 4-((L-valyl)oxy)butanoic acid: • 1. Accelerated conditions ([…], 75±5% RH). • 2. Intermediate storage condition ([…], 65±5% RH). • 3. Long-term storage condition (25±2° C., […]). • 4. 2-8° C. conditions.
The sealed storage stability of crystalline 4-((L-valyl)oxy)butanoic acid (1) was tested according to the International Council for Harmonization of Technical Requirements for Pharmaceuticals for Human Use (ICH) document Q1A (R2) “Stability Testing of New Drug Substances and Products.” Accordingly, samples were pulled at 3- and 6-month timepoints. The assay percentage of the crystalline 4-((L-valyl)oxy)butanoic acid was determined by electrochemical titration using acetic acid as the solvent and perchloric acid as the titrant. Water content was tested by Karl Fischer titration (Karl Fisher Titrator: Mettler V30). Impurities were measured by HPLC (HPLC Instrument: Waters Arc HPLC system with CAD; Column: Waters Atlantis T3, 4.6×150 mm, 3 μm). The samples were analyzed by XRPD analysis (XRPD Instrument: Bruker D8 advance). The sealed storage stability results of crystalline 4-((L-valyl)oxy)butanoic acid stored under the four storage conditions are summarized in Table 2.

[2] = Sealed storage stability, other studies, 36 months; assay type: physicochemical; conditions: 25±2° C., for 36 months; stable = absorbs less than 2 wt % water and impurity content of less than 2 wt %
Excerpt: as §1
Stability is defined as the sample of crystalline 4-((L-valyl)oxy)butanoic acid absorbs less than 2 wt % water and an impurity content of less than 2 wt % for a period of time under the indicated sealed storage conditions.

[3] = up to 6 months under all sealed storage conditions

Compound: CC(C)[C@H](N)C(=O)OCCCC(=O)O [4-((L-valyl)oxy)butanoic acid]
- Crystalline Form ([1]; 2-8° C., 6 M): C
- Crystalline Form ([1]; 2-8° C., D 0): C
- Crystalline Form ([1]; 25 ± 2° C., 60 ± 5% RH, 6 M): C
- Crystalline Form ([1]; 25 ± 2° C., 60 ± 5% RH, D 0): C
- Crystalline Form ([1]; 30 ± 2° C., 65 ± 5% RH, 3 M): C
- Crystalline Form ([1]; 30 ± 2° C., 65 ± 5% RH, 6 M): C
- Crystalline Form ([1]; 30 ± 2° C., 65 ± 5% RH, D 0): C
- Crystalline Form ([1]; 40 ± 2° C., 75 ± 5% RH, 6 M): C
- Crystalline Form ([1]; 40 ± 2° C., 75 ± 5% RH, D 0): C
- Assay ([1]; 2-8° C., 3 M): 98.8 wt %
- Total Impurities ([1]; 2-8° C., 3 M): 0.4 wt %
- Water Content ([1]; 2-8° C., 3 M): 0.2 wt %
- Assay ([1]; 2-8° C., 6 M): 99.8 wt %
- Total Impurities ([1]; 2-8° C., 6 M): 0.2 wt %
- Water Content ([1]; 2-8° C., 6 M): 0.3 wt %
- Assay ([1]; 2-8° C., D 0): 99.4 wt %
- Total Impurities ([1]; 2-8° C., D 0): 0.3 wt %
- Water Content ([1]; 2-8° C., D 0): 0.1 wt %
- Assay ([1]; 25 ± 2° C., 60 ± 5% RH, 3 M): 98.8 wt %
- Total Impurities ([1]; 25 ± 2° C., 60 ± 5% RH, 3 M): 0.5 wt %
- Water Content ([1]; 25 ± 2° C., 60 ± 5% RH, 3 M): 0.2 wt %
- Assay ([1]; 25 ± 2° C., 60 ± 5% RH, 6 M): 99.3 wt %
- Total Impurities ([1]; 25 ± 2° C., 60 ± 5% RH, 6 M): 0.4 wt %
- Water Content ([1]; 25 ± 2° C., 60 ± 5% RH, 6 M): 0.3 wt %
- Assay ([1]; 25 ± 2° C., 60 ± 5% RH, D 0): 99.4 wt %
- Total Impurities ([1]; 25 ± 2° C., 60 ± 5% RH, D 0): 0.3 wt %
- Water Content ([1]; 25 ± 2° C., 60 ± 5% RH, D 0): 0.1 wt %
- Assay ([1]; 30 ± 2° C., 65 ± 5% RH, 3 M): 99.9 wt %
- Total Impurities ([1]; 30 ± 2° C., 65 ± 5% RH, 3 M): 0.4 wt %
- Water Content ([1]; 30 ± 2° C., 65 ± 5% RH, 3 M): 0.4 wt %
- Assay ([1]; 30 ± 2° C., 65 ± 5% RH, 6 M): 99.3 wt %
- Total Impurities ([1]; 30 ± 2° C., 65 ± 5% RH, 6 M): 0.4 wt %
- Water Content ([1]; 30 ± 2° C., 65 ± 5% RH, 6 M): 0.1 wt %
- Assay ([1]; 30 ± 2° C., 65 ± 5% RH, D 0): 99.4 wt %
- Total Impurities ([1]; 30 ± 2° C., 65 ± 5% RH, D 0): 0.3 wt %
- Water Content ([1]; 30 ± 2° C., 65 ± 5% RH, D 0): 0.1 wt %
- Assay ([1]; 40 ± 2° C., 75 ± 5% RH, 3 M): 98.8 wt %
- Total Impurities ([1]; 40 ± 2° C., 75 ± 5% RH, 3 M): 0.6 wt %
- Water Content ([1]; 40 ± 2° C., 75 ± 5% RH, 3 M): 0.1 wt %
- Assay ([1]; 40 ± 2° C., 75 ± 5% RH, 6 M): 99.3 wt %
- Total Impurities ([1]; 40 ± 2° C., 75 ± 5% RH, 6 M): 0.7 wt %
- Water Content ([1]; 40 ± 2° C., 75 ± 5% RH, 6 M): 0.3 wt %
- Assay ([1]; 40 ± 2° C., 75 ± 5% RH, D 0): 99.4 wt %
- Total Impurities ([1]; 40 ± 2° C., 75 ± 5% RH, D 0): 0.3 wt %
- Water Content ([1]; 40 ± 2° C., 75 ± 5% RH, D 0): 0.1 wt %
- Chemical stability of the crystalline sample [1, 3]: chemically stable
- Sealed storage stability [1, 3]: stable
- Sealed storage stability [2]: sealed storage stable
